Experimental findings from article PMC11859905, “Flavonoids as Potential Modulators of Pancreatic Lipase Catalytic Activity” (Pharmaceutics, 2025) are described below.

Where two headings read alike, the source gives them in different places. A value given as a limit tells only on which side of the number the result lay.

One assay has as its target T1, human pancreatic lipase (Homo sapiens, UniProt P16233).
T1 construct: PL from the human pancreas (triacylglycerol acyl hydrolase, EC 3.1.1.3); from tissue; host or cells: human pancreas
T1 sequence (P16233 17-465): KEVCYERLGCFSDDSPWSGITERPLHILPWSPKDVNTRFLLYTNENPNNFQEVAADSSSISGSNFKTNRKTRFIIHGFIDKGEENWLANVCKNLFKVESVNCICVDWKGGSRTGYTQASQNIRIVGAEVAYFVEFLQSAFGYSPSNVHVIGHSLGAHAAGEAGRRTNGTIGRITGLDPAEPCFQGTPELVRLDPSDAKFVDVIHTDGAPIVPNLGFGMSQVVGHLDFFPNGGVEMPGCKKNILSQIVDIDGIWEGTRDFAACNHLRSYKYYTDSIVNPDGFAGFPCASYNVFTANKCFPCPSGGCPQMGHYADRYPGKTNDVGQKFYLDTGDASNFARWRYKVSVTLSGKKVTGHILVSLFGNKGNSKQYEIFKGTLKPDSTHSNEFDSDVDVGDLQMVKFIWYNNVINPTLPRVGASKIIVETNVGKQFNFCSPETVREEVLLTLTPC
Kind of assay: In vitro assay using human pancreatic lipase (4-MUO hydrolysis, fluorometric).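 On all read-outs here: Read-out is the initial rate of fluorescent 4-MU release as HPL cleaves the 4-MUO substrate, a rate that scales with the amount of enzyme.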 In kind it is biochemical. Conditions: for inhibitory activity against HPL (in words): at the maximum concentration that could be tested; for IC50: human PL 2 U/mL, 4-MUO 0.05 mM, mean ± SEM.

Assay [1] concerns the target T2, porcine pancreatic lipase (Sus scrofa, UniProt P00591).
T2 sequence (P00591 1-450): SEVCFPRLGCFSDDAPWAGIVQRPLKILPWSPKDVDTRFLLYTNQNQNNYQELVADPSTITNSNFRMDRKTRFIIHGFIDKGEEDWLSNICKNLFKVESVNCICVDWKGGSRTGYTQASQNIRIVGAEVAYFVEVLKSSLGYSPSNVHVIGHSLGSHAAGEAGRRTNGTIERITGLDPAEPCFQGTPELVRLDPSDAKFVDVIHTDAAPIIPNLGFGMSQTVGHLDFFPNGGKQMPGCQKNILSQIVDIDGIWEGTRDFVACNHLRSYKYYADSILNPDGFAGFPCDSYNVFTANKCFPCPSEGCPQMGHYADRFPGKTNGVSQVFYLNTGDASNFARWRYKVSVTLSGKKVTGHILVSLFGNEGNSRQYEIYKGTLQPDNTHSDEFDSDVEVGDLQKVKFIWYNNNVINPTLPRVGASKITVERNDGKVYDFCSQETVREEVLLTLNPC
Nature of the assay: In vitro assay using porcine pancreatic lipase (4-MUO hydrolysis, fluorometric).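 On all read-outs here: product 4-methylumbeliferone formation tracked fluorometrically, catalytic rate from RFU slope over the 10–30 min window, compounds checked beforehand for own fluorescence, at least three independent experiments.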 Conditions: for inhibitory activity against PPL (in words): at the maximum concentration that could be tested.

Where [2] appears, read: read-out: PL Inhibition (%) ± SEM, Porcine.
The mark [3] stands for this setting: read-out: PL Inhibition (%) ± SEM, Human.
The mark [4] stands for this setting: at 50 μM, read-out: PL Inhibition (%) ± SEM, Human.
Where [5] appears, read: read-out: PL Inhibition (%) ± SEM, Human, at 50 μM.

In the case of `O=c1c(O)c(-c2ccc(O)c(O)c2)oc2c(O[C@@H]3O[C@H](CO)[C@@H](O)[C@H](O)[C@H]3O)c(O)cc(O)c12` [Flavonoid 48, Gossypin], the inhibition at 12.5 µM on human pancreatic lipase (at 12.5 μM, read-out: PL Inhibition (%) ± SEM, Human) was less than 30%; in assay [1] (setting [2]) it was less than 30%. In addition, the “inhibitory activity against HPL (in words)” value on human pancreatic lipase is listed as “did not show significant inhibitory activity”. Further, the “inhibitory activity against PPL (in words)” value in assay [1] is listed as “did not show significant inhibitory activity”.

`O=c1cc(-c2cccc(O)c2)oc2ccccc12` [Flavonoid 2]: the inhibition at 100 µM (on human pancreatic lipase (setting [3]); in assay [1] (setting [2])) was less than 30% in each case.

With `O=c1c(OC2OC(CO)C(O)C(O)C2O)c(-c2ccc(O)c(O)c2)oc2cc(O)cc(O)c12` (stereo not drawn) [Flavonoid 31], the inhibition at 50 µM (on human pancreatic lipase (setting [4]); in assay [1] (setting [2])) was less than 30% throughout. Further, the “inhibitory activity against HPL (in words)” value against human pancreatic lipase is “did not show significant inhibitory activity”. Besides, the “inhibitory activity against PPL (in words)” value in assay [1] is recorded as “did not show significant inhibitory activity”.

For the compound `O=c1c(O)c(-c2ccc(O)cc2)oc2c(O)c(O)ccc12` [Flavonoid 44], the inhibition at 50 µM on human pancreatic lipase (setting [4]) was less than 30%; in assay [1] (setting [2]), 42 ± 2%.

On to `CCCCCCc1c(-c2ccc(O)c(O)c2)oc2cc(O)cc(O)c2c1=O` [Flavonoid 29], for which the IC50 at human pancreatic lipase is 16.4 ± 0.7 µM; in assay [1] it was 10.1 ± 0.4 µM.

With `O=c1cc(-c2ccccc2)oc2cc(O)ccc12` [Flavonoid 9], the inhibition at 50 µM (on human pancreatic lipase (setting [5]); in assay [1] (setting [2])) was less than 30% in each case.

As for `O=c1c(OC2OC(CO)C(O)C(O)C2O)c(-c2ccc(OC3OC(CO)C(O)C(O)C3O)c(O)c2)oc2cc(O)cc(O)c12` (stereo not drawn) [Flavonoid 35], at human pancreatic lipase, the “inhibitory activity against HPL (in words)” value is “did not show significant inhibitory activity”. For the same compound, the inhibition at 50 µM (on human pancreatic lipase (setting [5]); in assay [1] (setting [2])) was less than 30% throughout. For the same compound, in assay [1], the “inhibitory activity against PPL (in words)” value was “did not show significant inhibitory activity”.

As for `C[C@@H]1O[C@@H](OC[C@H]2O[C@@H](Oc3c(-c4ccc(O)c(O)c4)oc4cc(O)cc(O)c4c3=O)[C@H](O)[C@@H](O)[C@@H]2O)[C@H](O)[C@H](O)[C@H]1O` [Flavonoid 32, Rutin], the inhibition at 50 µM at human pancreatic lipase (setting [4]) is 34 ± 1%; in assay [1] (setting [2]) it was less than 30%. Moreover, at human pancreatic lipase, the “inhibitory activity against HPL (in words)” value is given as “did not show significant inhibitory activity”. In addition, the “inhibitory activity against PPL (in words)” value in assay [1] is on record as “did not show significant inhibitory activity”.

`O=c1cc(-c2cccc(O)c2)oc2cccc(O)c12` [Flavonoid 6]: the inhibition at 25 µM on human pancreatic lipase (at 25 μM, read-out: PL Inhibition (%) ± SEM, Human) is 32.3 ± 0.1%; in assay [1] (setting [2]), less than 30%.

As for `O=c1c(O)c(-c2ccc(O)cc2)oc2cc(OC3OC(CO)C(O)C(O)C3O)cc(O)c12` (stereo not drawn) [Flavonoid 26, Populnin], the inhibition at 100 µM (at human pancreatic lipase (setting [3]); in assay [1] (setting [2])) was less than 30% throughout. The “inhibitory activity against HPL (in words)” value on human pancreatic lipase was “did not show significant inhibitory activity”. The “inhibitory activity against PPL (in words)” value in assay [1] is recorded as “did not show significant inhibitory activity”.

Consider `O=c1c(O)c(-c2ccc(O)c(O)c2)oc2c(O)c(O)cc(O)c12` [Flavonoid 47, Gossypetin], for which the inhibition at 50 µM stood at 37 ± 1% on human pancreatic lipase (setting [5]) and 36 ± 3% in assay [1] (setting [2]).

For `Oc1cc(O)c2c(c1)O[C@H](c1ccc(O)c(O)c1)[C@H](O)C2` [Flavonoid 39, (–)-Epicatechin], the inhibition at 100 µM (at human pancreatic lipase (setting [3]); in assay [1] (setting [2])) was less than 30% each time.

For the compound `O=c1cc(-c2ccccc2)oc2cccc(O)c12` [Flavonoid 5], the inhibition at 50 µM (at human pancreatic lipase (setting [4]); in assay [1] (setting [2])) was less than 30% throughout.

Turning to `O=c1cc(-c2ccccc2)oc2c(O)c(O)cc(O)c12` [Flavonoid 42, Norwogonin], the IC50 came out at 79 ± 3 µM on human pancreatic lipase and 98 ± 9 µM in assay [1].

Regarding `O=c1c(O)c(-c2ccc(O)c(O)c2)oc2ccccc12` [Flavonoid 18], the inhibition at 50 µM at human pancreatic lipase (setting [4]) was determined as 44 ± 5%; in assay [1] (setting [2]), 41 ± 4%. Also, the “inhibitory activity against HPL (in words)” value on human pancreatic lipase is “did not show significant inhibitory activity”. Besides, in assay [1], the “inhibitory activity against PPL (in words)” value is “did not show significant inhibitory activity”.

As usually defined, the inhibition is the share of the control response that was lost under treatment. A word on the IC50: it is the concentration that inhibits the measured activity by half. A high value points to a need for much substance.
